Test results published in article PMC6017631, “The Effect of Combining Natural Terpenes and Antituberculous Agents against Reference and Clinical Mycobacterium tuberculosis Strains” (Molecules : A Journal of Synthetic Chemistry and Natural …, 2018).
Converted amounts (≈) assume the structure as drawn. Like-named read-outs stand apart in the source and are kept apart here. Marks after values point to notes of the source that are not given here.

Tests used:
clinical isolate 253/16 = experiment: microbe, parasite or virus in culture; format: cell-based, Mycobacterium tuberculosis
[1] = test system: clinical isolate 192 (susceptible); experiment: microbe, parasite or virus in culture; format: cell-based, Mycobacterium tuberculosis
GMK cells = experiment: Cytotoxicity, MTT assay; format: cell-based, African green monkey; conditions: GMK cells, 48 h exposure, MTT; highest tested concentration 500 μg/mL
Method: (§1) The cytotoxicity experiment was performed using African green monkey kidney epithelial cells (GMK) obtained from BIOMED-Lublin S.A. (Lublin, Poland). The cells were cultured in EMEM medium (ATCC-LGC Standards, Cumberland, ME, USA) supplemented with 10% foetal bovine serum (FBS, Pan-Biotech, Aidenbach, Germany), penicillin (100 U/mL), and streptomycin (100 μg/mL) (Sigma-Aldrich, St. Louis, MO, USA). The GMK cells were maintained at 37 °C in a humidified atmosphere of 5% CO2 and 95% air. The GMK cells were seeded in 96-multiwell plates in 100 μL of the complete EMEM medium at a concentration of 3 × 10^5 cells/mL (3 × 10^4 cells/well) and the plates were maintained at 37 °C for 24 h. Then, the culture medium was replaced with 100 µL of different concentrations of tested agents and 2 reference anti-mycobacterial drugs—rifampicin and isoniazid. The stock solutions of all compounds were prepared in DMSO (Sigma-Aldrich, St. Louis, MO, USA), thus the highest solvent concentrations (1% and 0.5% DMSO) used in the experiment were tested in parallel to exclude potential toxicity associated with the use of DMSO. Different concentrations of the tested agents were obtained by six serial 2-fold dilutions using culture medium (the highest tested concentration was equal 500 µg/mL). GMK cells maintained in culture medium without anti-mycobacterial agent served as a negative control of cytotoxicity. The cells were exposed to tested compounds and reference drugs for 48 h, then cytotoxicity test was performed using MTT assay (Sigma-Aldrich, St. Louis, MO, USA) as it was described previously. The cytotoxicity test was repeated in three separate experiments (n = 3) and each experiment was carried out in quadruplicate. The IC50 values (concentration reducing viability of GMK cells by 50%) were determined using GraphPad Prism 5, Version 5.03 software (GraphPad Software, Inc., La Jolla, CA, USA).

H37RV ATTC 25618 = experiment: MIC determination, serial dilution in Middlebrook 7H9, and FICI; format: cell-based, Mycobacterium tuberculosis
Mtb H37Ra ATTC 25177 = experiment: as above; format: cell-based, Mycobacterium tuberculosis
Cytotoxicity, MTT assay = format: cell-based, African green monkey; conditions: African green monkey; for IC50 at 48 h: GMK cells, 48 h exposure, MTT, highest tested concentration 500 μg/mL
Method: as §1

[2] = test system: reference virulent strain H37Rv; design: method as in PMID 26400221; conditions: Alamar Blue technique, 8 days of incubation ref 36; cited from earlier work
Vero cell line = conditions: cited from earlier work
[3] = compounds tested separately, 253/16
[4] = compounds tested separately, 192
[5] = compounds tested separately, H37Rv
[6] = GMK cells (African green monkey kidney epithelial cells)
[7] = Mycobacterium tuberculosis, H37RV
[8] = Mycobacterium tuberculosis, compounds tested separately, read-out: MIC
[9] = Mycobacterium tuberculosis, read-out: MIC for EMB in a Presence of Terpenes
[10] = Mycobacterium tuberculosis, read-out: MIC for INH in a Presence of Terpenes
[11] = Mycobacterium tuberculosis, read-out: MIC for RMP in a Presence of Terpenes
[12] = Mycobacterium tuberculosis, H37RV, read-out: MIC for INH in a Presence of Terpenes
[13] = Mycobacterium tuberculosis, H37Rv, subinhibitory concentration of the terpene, read-out: MIC for RMP in a Presence of Terpenes
[14] = Mycobacterium tuberculosis, subinhibitory concentration of the terpene, read-out: MIC for EMB in a Presence of Terpenes
[15] = Mycobacterium tuberculosis, subinhibitory concentration of the terpene, read-out: MIC for INH in a Presence of Terpenes
[16] = Mycobacterium tuberculosis, subinhibitory concentration of the terpene, read-out: MIC for RMP in a Presence of Terpenes
[17] = Mycobacterium tuberculosis, compounds tested separately, H37Rv, read-out: MIC
[18] = Mycobacterium tuberculosis, H37Rv, subinhibitory concentration of the terpene, read-out: MIC for EMB in a Presence of Terpenes

For `CC(C)=CCC[C@](C)(O)C1CC=C(C)CC1` (stereo partly drawn) [bisabolol], the MIC (clinical isolate 253/16; [3]) was 128 µg/mL (≈ 576 µM), the MIC [1, 4] was 16 µg/mL (≈ 72 µM) and the “IC50 (cytotoxicity)” value (GMK cells) was 71.12 µg/mL (≈ 320 µM). It also gave an MIC (H37RV ATTC 25618; [5]) of 16 µg/mL and an MIC (Mtb H37Ra ATTC 25177; compounds tested separately) of 64 µg/mL.

For `NNC(=O)c1ccncc1` [INH, isoniazid, reference compound], the MIC (clinical isolate 253/16; Mycobacterium tuberculosis) was 8 µg/mL (≈ 58.3 µM), the MIC ([1]; Mycobacterium tuberculosis) was less than 0.125 µg/mL and the IC50 at 48 h (Cytotoxicity, MTT assay; [6]) was greater than 500 µg/mL. For the same compound, the MIC (H37RV ATTC 25618; [7]) was less than 0.125 µg/mL and the MIC (Mtb H37Ra ATTC 25177; [8]) was 0.125 µg/mL.

For `Cc1ccc(C(C)C)cc1O` [carvacrol], the MIC [2] is given as 2.02 µg/mL (≈ 13.4 µM).

In the case of `C=C[C@]1(C)CC[C@@H](C(=C)C)C[C@H]1C(=C)C` [β-elemene], the MIC (clinical isolate 253/16; [3]) is reported as greater than 512 µg/mL, the MIC [1, 4] is reported as 256 µg/mL (≈ 1250 µM) and the MIC (H37RV ATTC 25618; [5]) is reported as 256 µg/mL. For the same compound, the MIC (Mtb H37Ra ATTC 25177; compounds tested separately) was 32 µg/mL.

`CC1=CCC2CC1C2(C)C` (stereo not drawn) [α-pinene] showed an MIC (clinical isolate 253/16; Mycobacterium tuberculosis) of 256 µg/mL (≈ 1880 µM), an MIC (clinical isolate 253/16; [9]) of 32 µg/mL and an MIC (clinical isolate 253/16; [10]) of 8 µg/mL. It also gave an MIC (clinical isolate 253/16; [11]) of 4 µg/mL, an MIC ([1]; Mycobacterium tuberculosis) of 128 µg/mL (≈ 940 µM) and an MIC [1, 9] of less than 0.125 µg/mL. For the same compound, the MIC [1, 10] was less than 0.125 µg/mL, the MIC [1, 11] was less than 0.125 µg/mL and the IC50 at 48 h (Cytotoxicity, MTT assay; [6]) was greater than 500 µg/mL. It also gave a viability at 48 h, 500 µg/mL (Cytotoxicity, MTT assay; GMK cells (African green monkey kidney epithelial cells), exposure to the highest tested concentration (500 μg/mL)) of roughly 90%, an MIC (H37RV ATTC 25618; [7]) of 128 µg/mL and an MIC (H37RV ATTC 25618; Mycobacterium tuberculosis, H37RV, read-out: MIC for EMB in a Presence of Terpenes) of 0.125 µg/mL. It also gave an MIC (H37RV ATTC 25618; [12]) of less than 0.125 µg/mL, an MIC (H37RV ATTC 25618; [13]) of 0.25 µg/mL and an MIC (Mtb H37Ra ATTC 25177; [8]) of 128 µg/mL. For the same compound, the MIC (Mtb H37Ra ATTC 25177; [14]) was 1 µg/mL, the MIC (Mtb H37Ra ATTC 25177; [15]) was 0.125 µg/mL and the MIC (Mtb H37Ra ATTC 25177; [16]) was 0.0625 µg/mL.

Work on `CC[C@@H](CO)NCCN[C@@H](CC)CO` [EMB, ethambutol, reference compound] yielded an MIC (clinical isolate 253/16; Mycobacterium tuberculosis) of 64 µg/mL (≈ 313 µM), an MIC ([1]; Mycobacterium tuberculosis) of less than 0.125 µg/mL and an MIC (H37RV ATTC 25618; [17]) of 0.25 µg/mL. It also gave an MIC (Mtb H37Ra ATTC 25177; [8]) of 4 µg/mL.

For `Cc1ccc(C(C)C)cc1` [p-cymene], the MIC [2] is listed as 91 µg/mL (≈ 678 µM).

For `C=C(C)[C@H]1CC=C(C)CC1` [(R)-limonene], the MIC (clinical isolate 253/16; [3]) was 256 µg/mL (≈ 1880 µM), the MIC [1, 4] was 128 µg/mL (≈ 940 µM) and the “IC50 (cytotoxicity)” value (GMK cells) was greater than 500 µg/mL. It also gave an MIC (H37RV ATTC 25618; [5]) of 128 µg/mL and an MIC (Mtb H37Ra ATTC 25177; compounds tested separately) of 32 µg/mL.

`CO[C@H]1/C=C/O[C@@]2(C)Oc3c(C)c(O)c4c(O)c(c(/C=N/N5CCN(C)CC5)c(O)c4c3C2=O)NC(=O)/C(C)=C\C=C\[C@H](C)[C@H](O)[C@@H](C)[C@@H](O)[C@@H](C)[C@H](OC(C)=O)[C@@H]1C` [RMP, rifampicin, reference compound] showed an MIC (clinical isolate 253/16; Mycobacterium tuberculosis) of 4 µg/mL (≈ 4.86 µM), an MIC ([1]; Mycobacterium tuberculosis) of less than 0.125 µg/mL and an IC50 at 48 h (Cytotoxicity, MTT assay; [6]) of 142 µg/mL (≈ 172 µM). The MIC (H37RV ATTC 25618; [17]) was 0.25 µg/mL and the MIC (Mtb H37Ra ATTC 25177; [8]) was 1 µg/mL.

In the case of `C=CC(=C)CCC=C(C)C` [myrcene], the “IC50 (cytotoxicity)” value (Vero cell line; determined on Vero cell Line ref 31) is listed as 200 * μg/mL, the cytotoxic activity (Vero cell line; up to a concentration of 200 μg/mL, Vero cell line ref 33) is listed as “did not present cytotoxic activity” and the MIC (clinical isolate 253/16; Mycobacterium tuberculosis) is listed as greater than 512 µg/mL. For the same compound, the MIC (clinical isolate 253/16; [9]) was 64 µg/mL, the MIC (clinical isolate 253/16; [10]) was 8 µg/mL and the MIC (clinical isolate 253/16; [11]) was 4 µg/mL. It also gave an MIC ([1]; Mycobacterium tuberculosis) of 256 µg/mL (≈ 1880 µM), an MIC [1, 9] of less than 0.125 µg/mL and an MIC [1, 10] of less than 0.125 µg/mL. The MIC [1, 11] was less than 0.125 µg/mL, the MIC (H37RV ATTC 25618; [7]) was 256 µg/mL and the MIC (H37RV ATTC 25618; [12]) was less than 0.125 µg/mL. The MIC (H37RV ATTC 25618; [18]) was 0.25 µg/mL, the MIC (H37RV ATTC 25618; [13]) was 0.25 µg/mL and the MIC (Mtb H37Ra ATTC 25177; [8]) was 128 µg/mL. For the same compound, the MIC (Mtb H37Ra ATTC 25177; [14]) was 0.5 µg/mL, the MIC (Mtb H37Ra ATTC 25177; [15]) was 0.0625 µg/mL and the MIC (Mtb H37Ra ATTC 25177; [16]) was 0.125 µg/mL.

In the case of `C=C1CC/C=C(\C)CC[C@@H]2[C@@H]1CC2(C)C` [β-caryophyllene], the MIC [2] is given as 100 µg/mL (≈ 489 µM).

Work on `C=C1CCC2(C(C)C)CC12` (stereo not drawn) [sabinene] yielded an MIC (clinical isolate 253/16; Mycobacterium tuberculosis) of 256 µg/mL (≈ 1880 µM), an MIC (clinical isolate 253/16; [9]) of 64 µg/mL and an MIC (clinical isolate 253/16; [10]) of 8 µg/mL. It also gave an MIC (clinical isolate 253/16; [11]) of 4 µg/mL, an MIC ([1]; Mycobacterium tuberculosis) of 128 µg/mL (≈ 940 µM) and an MIC [1, 9] of less than 0.125 µg/mL. For the same compound, the MIC [1, 10] was less than 0.125 µg/mL, the MIC [1, 11] was less than 0.125 µg/mL and the IC50 at 48 h (Cytotoxicity, MTT assay) was 348 µg/mL (≈ 2550 µM). It also gave an MIC (H37RV ATTC 25618; [7]) of 128 µg/mL, an MIC (H37RV ATTC 25618; [12]) of less than 0.125 µg/mL and an MIC (H37RV ATTC 25618; [18]) of 0.25 µg/mL. It also gave an MIC (H37RV ATTC 25618; [13]) of 0.25 µg/mL, an MIC (Mtb H37Ra ATTC 25177; [8]) of 64 µg/mL and an MIC (Mtb H37Ra ATTC 25177; [14]) of 0.5 µg/mL. The MIC (Mtb H37Ra ATTC 25177; [15]) was 0.0625 µg/mL and the MIC (Mtb H37Ra ATTC 25177; [16]) was 0.0625 µg/mL.

With (S)-limonene the MIC (clinical isolate 253/16; [3]) was greater than 512 µg/mL, the MIC [1, 4] was 256 µg/mL and the “IC50 (cytotoxicity)” value (GMK cells) was greater than 500 µg/mL. The MIC (H37RV ATTC 25618; [5]) was 256 µg/mL and the MIC (Mtb H37Ra ATTC 25177; compounds tested separately) was 32 µg/mL.

In the case of `Cc1ccc(C(C)C)c(O)c1` [thymol], the MIC [2] is listed as 0.78 µg/mL (≈ 5.19 µM).
